Blank lines part the entries; values can stand above or below the compound they belong to.
Columns and labels:
hA2A AR [1] = biological target: T1, hA2A AR (Homo sapiens, UniProt P29274); assay: Radioligand membrane binding assay, A2A AR; set-up: expressed in transfected cells; details: for Ki: Table 3, expressed in CHO cells
Description: (§1) Radioligand Membrane Binding Experiments. Radioligand binding assays were performed for A1, A2A, and A3 ARs. Each tube in the binding assay contained 100 μL of membrane suspension (20 μg of protein), 50 μL of agonist radioligand, and 50 μL of increasing concentrations of the test ligands in Tris-HCl buffer (50 mM, pH 7.5) containing 10 mM MgCl2. Nonspecific binding was determined using […] 5′-N-ethylcarboxamidoadenosine diluted with the buffer. The mixtures were incubated at 25° C. for 60 min. Binding reactions were terminated by filtration through Whatman GF/B filters under a reduced pressure using a MT-24 cell harvester (Brandell, Gaithersburg, Md.). Filters were washed three times with 5 mL of 50 mM ice-cold Tris-HCl buffer (pH 7.5). […] After the filters were washed, the radioactivity was measured using a Beckman γ-counter. For the A1 and A2A assays, the radioactive agonists [^3H] N^6-chlorocyclopentyladenosine and [^3H] 2-(4-(2-carboxyethyl)phenylethylamino)-5′-N-ethylcaboxamido-adenosine were used, respectively. After the filters were washed, they were placed in scintillation vials containing 5 mL of Hydrofluor scintillation buffer and counted using a Perkin Elmer Liquid Scintillation Analyzer. The Ki value was determined using GraphPad Prism for all assays.

A1AR [2] = biological target: T2, A1AR (Homo sapiens, UniProt P30542); assay: [35S]GTPγS binding, A1AR; type: biochemical; details: CHO cells expressing A1AR
T2 construct: expressed in transfected cells; host or cells: CHO cells
T2 sequence (P30542 1-326): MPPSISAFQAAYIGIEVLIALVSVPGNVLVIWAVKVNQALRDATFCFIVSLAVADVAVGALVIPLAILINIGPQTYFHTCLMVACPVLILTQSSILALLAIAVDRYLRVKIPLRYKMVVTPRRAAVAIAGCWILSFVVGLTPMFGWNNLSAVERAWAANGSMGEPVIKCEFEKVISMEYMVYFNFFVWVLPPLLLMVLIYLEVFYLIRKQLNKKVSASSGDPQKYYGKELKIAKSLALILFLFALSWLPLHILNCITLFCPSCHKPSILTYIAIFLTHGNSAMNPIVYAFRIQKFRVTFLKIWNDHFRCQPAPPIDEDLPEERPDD

A1AR [3] = biological target: T2, A1AR; assay: Binding at A1AR with [3H]CCPA, CHO cells
A2AAR = biological target: T3, A2AAR (Homo sapiens, UniProt P29274); assay: Binding at A2AAR with [3H]CGS21680, HEK cells
T3 construct: expressed in transfected cells; host or cells: CHO

hA1 AR = biological target: T4, hA1 AR (Homo sapiens, UniProt P30542); assay: Radioligand membrane binding assay, A1 AR; details: Table 3; expressed in CHO cells
T4 construct: expressed in transfected cells; host or cells: CHO cells
T4 sequence (P30542 1-326): T2 sequence (P30542 1-326)

hA3 AR [4] = biological target: T5, hA3 AR (Homo sapiens, UniProt P0DMS8); assay: Calcium protocol, CHO cells expressing human A3 receptor; type: cell-based
T5 construct: expressed in transfected cells; host or cells: CHO cells
T5 sequence (P0DMS8 1-318): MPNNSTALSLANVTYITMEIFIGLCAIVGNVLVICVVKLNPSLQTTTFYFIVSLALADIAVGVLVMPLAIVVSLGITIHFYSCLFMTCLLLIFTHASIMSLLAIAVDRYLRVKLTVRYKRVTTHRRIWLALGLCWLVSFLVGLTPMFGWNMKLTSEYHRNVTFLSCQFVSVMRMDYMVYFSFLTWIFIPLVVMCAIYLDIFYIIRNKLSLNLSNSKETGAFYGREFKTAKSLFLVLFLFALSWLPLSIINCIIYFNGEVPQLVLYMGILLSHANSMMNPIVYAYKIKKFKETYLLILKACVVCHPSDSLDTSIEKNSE
Description: Calcium Protocol. Chinese Hamster Ovary (CHO) cells stably expressing the human A3 receptor were grown in Dulbecco's Modified Eagle Medium/F12 (Sigma) supplemented with 10% fetal bovine serum, antibiotics, and glutamine. Each assay was completed by passaging the CHO A3 cells into 96 well plates and incubating overnight at 37° C. with 5% CO2. The FLIPR Calcium 4 Kit provided by Molecular Devices was used as described previously (Niebauer). Briefly, the media was removed from the cells, and 30 μl of the Calcium 4 fluorescent dye supplemented with 2.5 mM probenecid was added to each well. The cells were incubated at room temperature for 45 minutes. The compound plate was prepared by diluting the compounds to 10^−5-10^−9 M in Hanks Buffer. Samples were run in duplicate on the Molecular Devices FlexStation I at room temperature. […] Increases in intracellular calcium are reported as the relative fluorescence units after exposure minus the basal fluorescence value before exposure. Each experiment was repeated at least three times.

hA3 AR [5] = biological target: T5, hA3 AR; assay: Radioligand membrane binding assay, A3 AR; details: Table 3; expressed in CHO cells
Description: as §1

hA2A AR [6] = biological target: T1, hA2A AR; assay: Functional assay at hA2A AR (Table 3); type: cell-based; set-up: expressed in transfected cells; details: Table 3 functional assay
hA2A AR [7] = biological target: T1, hA2A AR
A3 adenosine receptor [8] = biological target: T6, A3 adenosine receptor (Homo sapiens, UniProt P0DMS8); assay: Binding assay at A3 adenosine receptor (Table 7)
T6 sequence (P0DMS8 1-318): T5 sequence (P0DMS8 1-318)
Description: CHO (Chinese hamster ovary) cells expressing the recombinant human ARs were cultured in Dulbecco's modified Eagle medium (DMEM) and F12 (1:1) supplemented with 10% fetal bovine serum, 100 units/mL penicillin, 100 μg/mL streptomycin, and 2 μmol/mL glutamine. After harvesting, cells were homogenized and suspended. Cells were then centrifuged at 500 g for 10 min, and the pellet was resuspended in 50 mM Tris-HCl buffer (pH 7.5) containing 10 mM MgCl2. The suspension was homogenized and was then recentrifuged at 20 000 g for 20 min at 4° C. The resultant pellets were resuspended in Tris buffer, incubated with adenosine deaminase for 30 min at 37° C., and the suspension was stored at −80° C. until the binding experiments. The protein concentration was measured using the Bradford assay.
(§2) This Example illustrates a preparation and some of the properties of conjugate 117 in accordance with an embodiment of the invention.

A3 adenosine receptor [9] = biological target: T6, A3 adenosine receptor; assay: cAMP inhibition assay, A3 adenosine receptor; type: cell-based; details: Table 8
From the text: as §2

A1 adenosine receptor = biological target: T7, A1 adenosine receptor (Homo sapiens, UniProt P30542); assay: cAMP inhibition assay, A1 adenosine receptor; type: cell-based; details: Table 8
T7 sequence (P30542 1-326): T2 sequence (P30542 1-326)
From the text: as §2

T1 sequence (P29274 whole entry): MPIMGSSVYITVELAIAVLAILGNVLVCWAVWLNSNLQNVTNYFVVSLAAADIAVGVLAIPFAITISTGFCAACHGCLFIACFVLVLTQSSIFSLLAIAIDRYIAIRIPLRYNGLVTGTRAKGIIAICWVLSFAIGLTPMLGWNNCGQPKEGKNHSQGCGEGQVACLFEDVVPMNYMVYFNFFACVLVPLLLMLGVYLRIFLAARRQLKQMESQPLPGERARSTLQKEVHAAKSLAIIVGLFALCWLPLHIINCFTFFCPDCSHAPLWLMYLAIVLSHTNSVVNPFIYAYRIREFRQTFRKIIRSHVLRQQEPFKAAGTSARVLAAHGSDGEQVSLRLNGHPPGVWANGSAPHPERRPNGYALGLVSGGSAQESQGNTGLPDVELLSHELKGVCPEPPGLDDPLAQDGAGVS
T3 sequence (P29274 whole entry): as above

Structure (SMILES): CCNC(=O)[C@H]1OC(n2cnc3c(N)nc(NCCc4ccc(CCC(=O)NCCNC(=S)Nc5ccc(N=C=S)cc5)cc4)nc32)[C@@H](O)C1O (stereo partly shown) [compound 6]
inhibition at 10 µM (hA2A AR [1]; read-out: inhibition of binding at the hA2A AR): 58%

Structure (SMILES): CCNC(=O)[C@H]1O[C@@H](n2cnc3c(N)nc(NCCc4ccc(CCC(=O)NCCN)cc4)nc32)[C@H](O)[C@@H]1O [compound 5, 2-[4-(2-aminoethylaminocarbonylethyl)phenylethylamino]-5′-N-ethylcarboxamidoadenosine]
hA2A, EC50 (class symbol) (hA2A AR [7]): FA (Full agonist at 10 μM with >90% of effect of NECA)

Structure (SMILES): NCCNC(=O)Cc1ccc(NC(=O)Cc2ccc(Nc3ncnc4c3ncn4[C@@H]3O[C@H](CO)[C@@H](O)[C@H]3O)cc2)cc1 [compound 101, N^6-[4-[[[4-[[[(2-Aminoethyl)amino]carbonyl]methyl]-anilino]carbonyl]methyl]phenyl]adenosine, reference compound]
EC50 (A1AR [2]): 120 ± 13 nM
Ki (A1AR [3]): 10.4 ± 3.8 nM
Ki (A2AAR): 370 ± 100 nM

The remaining lines, values ahead:

EC50 (A1AR [2]): 3000 ± 1300 nM
Ki (A1AR [3]): 30 nM
Ki (A2AAR): 800 ± 360 nM
Structure (SMILES): O=C(O)CCc1ccc(NC(=S)NCCNC(=O)Cc2ccc(NC(=O)Cc3ccc(Nc4ncnc5c4ncn5[C@@H]4O[C@H](CO)[C@@H](O)[C@H]4O)cc3)cc2)cc1 [compound 104]

Ki (hA1 AR): 840 ± 100 nM
Ki (hA2A AR [1]): 70 nM
EC50 (hA3 AR [4]): 375 ± 40 nM
Structure (SMILES): CCNC(=O)[C@H]1OC(n2cnc3c(N)nc(NCCc4ccc(CCC(=O)NCCNC(=S)Nc5ccc(NC(=S)NCCNC(C)=O)cc5)cc4)nc32)[C@@H](O)C1O (stereo partly shown) [compound 7]

Ki (hA1 AR): 984 ± 223 nM
Ki (hA3 AR [5]): 58 ± 24 nM
EC50 (hA2A AR [6]): 51 ± 8 nM
Ki (hA2A AR [1]): 110 ± 15 nM
EC50 (hA3 AR [4]): 725 ± 110 nM
Structure (SMILES): CCNC(=O)[C@H]1OC(n2cnc3c(N)nc(NCCc4ccc(CCC(=O)NCCNC(C)=O)cc4)nc32)[C@@H](O)C1O (stereo partly shown) [compound 16]

EC50 (A1AR [2]): 50 nM
Ki (A1AR [3]): 43 nM
Ki (A3 adenosine receptor [8]): 10 ± 2 nM
Ki (A2AAR): 300 ± 20 nM
Ki (A3 adenosine receptor [9]): 61 nM
Ki (A1 adenosine receptor): 72 nM
Structure (SMILES): NCCNCCNC(=O)Cc1ccc(NC(=O)Cc2ccc(Nc3ncnc4c3ncn4[C@@H]3O[C@H](CO)[C@@H](O)[C@H]3O)cc2)cc1 [compound 107, N-(2-Aminoethyl)-ADAC]

— patent US8153781B2, “Dendrimer conjugates of agonists and antagonists of the GPCR superfamily” (The United States of America as represented by the …, priority 2007, dated 2012)
